Values joined by “and” are separate entries in the source; they are usually repeats but may differ in a detail not shown here. Identical values can stand only once. “Also recorded” adds a separate entry of the source.
How the values were obtained:
[1] = system: pelvic floor muscles; assay: Pelvic floor muscle weight, body weight, lean mass and histology in ovariectomized female mice; type: in vivo, mouse; settings: OVX mice, 0.5-5 mg/kg/day p.o., 28 days; for pelvic floor muscle weight (cumulative COC, Pc and IL): vs OVX animals
Description: Six to eight week old female mice (n=5-7) purchased from JAX® Mice were ovariectomized (OVX) or sham operated. Twenty days after OVX, treatment was initiated as outlined in the table below. Compounds of Formulas IX and VIII were dissolved in DSMO/PEG 300 (15:85) and were administered by oral gavage. Body weight and MRI measurements, to evaluate total body lean mass, were recorded at the beginning and at the end of the treatment. The animals were treated for twenty-eight days and then sacrificed, pelvic floor muscles isolated, weighed and stored for RNA and protein extraction. The expression of genes involved in catabolism and anabolism of muscle was measured by mRNA analysis. The serum concentrations of the drugs were measured by LC-MS/MS. The statistical analysis was performed using JMP Pro® software utilizing one way analysis of variance.
Pelvic floor muscles were paraffin embedded and sections were stained for collagen (Mason trichrome) and elastin (Van Gieson). Stains were evaluated by a pathologist for fiber length and stain intensity.
The pelvic floor muscles in mice are small making the unmagnified visualization difficult. In order to improve the resolution, the pelvic regions of the mice were immersed in formalin for two days after sacrifice before dissecting them under microscope along with precise weight measurement. The COC, Pc, and IL were isolated and weighed using a microbalance that has a resolution as low as a microgram.
Six to eight week old female mice (n=6-8/group) were ovariectomized (OVX) or sham operated. One month after OVX, when the serum hormone levels were at trough, body composition was measured by MRI and treatment was initiated with vehicle or a dose response of one of two SARMs. Twenty eight days after treatment initiation, body composition was again measured, animals were sacrificed, and pelvic floor muscles were weighed. Serum drug concentrations were measured by LC-MS/MS. Muscle sections were stained for collagen and elastin to evaluate the effect of SARMs on architecture. Data were analyzed by One Way ANOVA followed by Tukey test.

[2] = system: prostate, seminal vesicles and levator ani muscle; assay: Androgenic and anabolic activity in castrated (ORX) male rats, daily oral gavage for fourteen days; type: in vivo, rat; settings: for levator ani muscle weight / prostate weight / seminal vesicle weight / dose that fully maintained or restored levator ani muscle weight (100% of intact): castrated (ORX) rats; for levator ani muscle weight / prostate weight / seminal vesicle weight: oral gavage 14 days; for ED50 in levator ani / ED50 in prostate / ED50 in seminal vesicles / Emax in levator ani / Emax in prostate / Emax in seminal vesicles: ORX rats, nonlinear regression
Description: Male Sprague-Dawley rats weighing approximately 200 g were purchased from Harlan Bioproducts for Science (Indianapolis, Ind.). […] The anabolic and androgenic activity of compound of Formula VIII in intact animals was tested, as well as a dose response evaluation in acutely orchidectomized (ORX) animals. Regenerative effects of the compound of Formula VIII in chronically (9 days) ORX rats was similarly evaluated.
The test article for this study was weighed and dissolved in 10% DMSO (Fisher) diluted with PEG 300 (Acros Organics, NJ) for preparation of the appropriate dosage concentrations. […] Animals were randomly assigned to one of seven groups consisting of 4 to 5 animals per group. Control groups (intact and ORX) were administered vehicle daily. Compound of Formula VIII was administered via oral gavage at doses of 0.01, 0.03, 0.1, 0.3, 0.75, and 1 mg/day to both intact and ORX groups. Where appropriate, animals were castrated on day one of the study. Treatment with compound of Formula VIII began nine days post ORX and was administered daily via oral gavage for fourteen days.
(§1) In addition, ventral prostate, seminal vesicles, and levator ani muscle were removed, individually weighed, normalized to body weight, and expressed as a percentage of intact control. Student's T-test was used to compare individual dose groups to the intact control group. Significance was defined a priori as a P-value <0.05. Ventral prostate and seminal vesicle weights were evaluated as a measure of androgenic activity, whereas levator ani muscle weight was evaluated as a measure of anabolic activity. Blood was collected from the abdominal aorta, centrifuged, and sera were frozen at −80° C. prior to determination of serum hormone levels. Serum luteinizing hormone (LH) and follicle stimulating hormone (FSH) concentrations were determined.
Male Sprague-Dawley rats weighing approximately 200 g were purchased from Harlan Bioproducts for Science (Indianapolis, Ind.). […] Anabolic and androgenic activity of compound of Formula IX in intact animals was evaluated, and the dose response in acutely orchidectomized (ORX) animals was evaluated as well. Regenerative effects of compound of Formula IX in chronically (9 days) ORX rats were also assessed.
The compound was weighed and dissolved in 10% DMSO (Fisher) diluted with PEG 300 (Acros Organics, NJ) for preparation of the appropriate dosage concentrations. […] Intact and ORX animals were randomly assigned to one of seven groups consisting of 4 to 5 animals per group. Control groups (intact and ORX) were administered vehicle daily. Compound of Formula IX was administered via oral gavage at doses of 0.01, 0.03, 0.1, 0.3, 0.75, and 1 mg/day to both intact and ORX groups.
as §1, with “Castrated animals (on day one of the study) were randomly assigned to dose groups (4-5 animals/group) of 0.01, 0.03, 0.1, 0.3, 0.75, and 1 mg/day, for dose-response evaluation. Dosing began nine days post ORX and was administered daily via oral gavage for fourteen days. […] In” for “In”, “As a measure of androgenic activity, ventral” for “Ventral”, “evaluated,” for “evaluated as a measure of androgenic activity,”, “lutenizing” for “luteinizing”
Male Sprague-Dawley rats weighing approximately 200 g were purchased from Harlan Bioproducts for Science (Indianapolis, Ind.).

Compound	pelvic floor muscle weight (cumulative COC, Pc and IL) [1]	levator ani muscle weight ([2]; 0.01 mg/day)	prostate weight ([2]; 0.01 mg/day)	seminal vesicle weight ([2]; 0.01 mg/day)	levator ani muscle weight ([2]; 0.03 mg/day)	prostate weight ([2]; 0.03 mg/day)	seminal vesicle weight ([2]; 0.03 mg/day)	levator ani muscle weight ([2]; 0.1 mg/day)	prostate weight ([2]; 0.1 mg/day)	seminal vesicle weight ([2]; 0.1 mg/day)	levator ani muscle weight ([2]; 0.3 mg/day)	prostate weight ([2]; 0.3 mg/day)	seminal vesicle weight ([2]; 0.3 mg/day)	levator ani muscle weight ([2]; 0.75 mg/day)	prostate weight ([2]; 0.75 mg/day)	seminal vesicle weight ([2]; 0.75 mg/day)	levator ani muscle weight ([2]; 1 mg/day)	prostate weight ([2]; 1 mg/day)	seminal vesicle weight ([2]; 1 mg/day)	ED50 in levator ani [2] [mg/day]	further results
C[C@](O)(COc1ccc(C#N)cc1)C(=O)Nc1ccc(C#N)c(Cl)c1 [VIII, (S)—N-(3-Chloro-4-cyanophenyl)-3-(4-cyanophenoxy)-2-hydroxy-2-methylpropanamide]	performed better than compound of Formula IX in increasing the muscle weights; also recorded: increase the weight of pelvic floor muscles	52%±8%	17%±6%	10%±3%	67%±9%	31%±3%	13%±4%	98%±10%	43%±15% and 43±15%	21%±6%	103%±12%	54%±17%	43%±8%	105%±12%	58%±10%	51%±9%	110%±17% and 110±17%	73%±12% and 73±12%	69%±14%	–	total lean body mass by MRI [1]: more potent than Compound IX in increasing lean mass; coccygeus (COC) muscle weight ([1]; vs OVX controls): more potent than Compound IX; anabolic ratio muscle/prostate weight ([2]; castrated rats, 0.01 mg/day): 3.02; anabolic ratio muscle/prostate weight ([2]; castrated rats, 0.03 mg/day): 2.13; anabolic ratio muscle/prostate weight ([2]; castrated rats, 0.1 mg/day): 2.27; anabolic ratio muscle/prostate weight ([2]; castrated rats, 0.3 mg/day): 1.90; anabolic ratio muscle/prostate weight ([2]; castrated rats, 0.75 mg/day): 1.83; anabolic ratio muscle/prostate weight ([2]; castrated rats, 1 mg/day): 1.51; derived dose that would restore levator ani muscle weight to 100% ([2]; castrated rats, oral gavage): 0.1 mg/day
C[C@](O)(COc1ccc(C#N)c(F)c1)C(=O)Nc1ccc(C#N)c(C(F)(F)F)c1 [XIII, (S)—N-(4-cyano-3-(trifluoromethyl)phenyl)-3-(4-cyano-3-fluorophenoxy)-2-hydroxy-2-methylpropanamide]	–	71%±4%	24%±4%	15%±2%	101%±15%	37%±9%	25%±9%	125%±20%	50%±11%	67%±20%	126%±14%	88%±16%	113%±6%	151±9%	132%±16%	155%±16%	143±17%	118±12%	160%±7%	0.03 ± 0.01	ED50 in prostate [2]: 0.21 ± 0.04 mg/day; ED50 in seminal vesicles [2]: 0.2 ± 0.04 mg/day; Emax in levator ani [2]: 147%±10%; Emax in prostate [2]: 147%±10%; Emax in seminal vesicles [2]: 188%±135%; dose that fully maintained or restored levator ani muscle weight (100% of intact) ([2]; oral gavage): 0.03 mg/day
C[C@](O)(COc1ccc(C#N)cc1)C(=O)Nc1ccc(C#N)c(C(F)(F)F)c1 [Compound IX, (S)—N-(4-Cyano-3-(trifluoromethyl)phenyl)-3-(4-cyanophenoxy)-2-hydroxy-2-methylpropanamide]	increase the weight of pelvic floor muscles	59%±6%	8%±2%	12%±4%	85%±9%	20%±5%	17%±5%	112%±10%	51%±19%	35%±10%	122%±16%	56%±9%	61%±15%	127±12%	80%±28%	70%±14%	129.66±2%	74±12.5%	80%±6%	0.02 ± 0.01	ED50 in prostate [2]: 0.09 ± 0.07 mg/day; ED50 in seminal vesicles [2]: 0.17 ± 0.05 mg/day; Emax in levator ani [2]: 131%±2%; Emax in prostate [2]: 83%±25%; Emax in seminal vesicles [2]: 85%±11%; dose that fully maintained or restored levator ani muscle weight (100% of intact) ([2]; oral gavage): > 0.1 mg/day

Reference: patent US20180353460A1, “METHODS OF TREATING UROLOGICAL DISORDERS USING SARMs” (priority 2014, published 2018)
